According to patent publication US7189351B2, “D-tagatose as an anti-biofilm agent” (priority 2001, dated 2007):

What was measured:
[1] = test system: Actinomyces naeslundii PK29/Streptococcus mitis J22; experiment: reversal of coaggregation, visual score; type: cell-based; set-up: key to reversal of coaggregation: *: Coaggregations were reversed by both D-galactose and D-tagatose; details: for reversal of coaggregation: pair J22/PK29, coaggregation score 4 without sugar; for coaggregation score: pair PK29/J22, water score 4, scale 0 no visible to 4 maximum coaggregation
Method: (§1) Fifteen oral isolates, including both early colonizers (Streptococcus and Actinomyces) and late colonizers (Fusobacterium, Porphyromonas, Prevotella, Veillonella, Capnocytophaga, and Actinobacillus), were tested for their ability to coaggregate with each other, followed by testing for the reversal of coaggregation by the addition of D-tagatose. Bacterial strains used were of human gingival crevice origin. The coaggregation was examined visually by a scoring system ranging from 0 for no visible coaggregation to 4 for maximum coaggregation [Cisar J. O., Kolenbrander P. E., and McIntire F. C., “Specificity of coaggregation reactions between human oral streptococci and strains of Actinomyces viscosus or Actinomyces naeslundii”, Infect. Immun., 24:742–752. 1979]. D-Tagatose, at a concentration of less than 750 mM, completely reversed the coaggregation of 17 (60%) of 28 strong coaggregating pairs (with a coaggregation score of 2 or higher) tested. […] These D-tagatose sensitive coaggregations were D-galactose reversible as well.
(§2) Pairs of various species of oral bacteria were tested for coaggregation, and for reversal of coaggregation when D-tagatose or D-galactose was administered.

[2] = test system: Actinomyces naeslundii PK947/Streptococcus oralis C104; experiment: reversal of coaggregation, visual score; type: cell-based; set-up: key to reversal of coaggregation: *: Coaggregations were reversed by both D-galactose and D-tagatose; details: for reversal of coaggregation: pair Cl04/PK947, coaggregation score 2 without sugar; for coaggregation score: pair PK947/C104, water score 2, scale 0 no visible to 4 maximum coaggregation
Method: as §1, §2

[3] = test system: Actinomyces naeslundii PK29/Streptococcus oralis C104; experiment: reversal of coaggregation, visual score; type: cell-based; set-up: key to coaggregation score without sugar: *: Coaggregations were reversed by both D-galactose and D-tagatose; details: for coaggregation score without sugar: pair Cl04/PK29, coaggregation score 4 without sugar; for coaggregation score: pair PK29/C104, water score 4, scale 0 no visible to 4 maximum coaggregation
Method: as §1, §2

[4] = test system: Actinomyces naeslundii PK29/Streptococcus oralis SO34; experiment: reversal of coaggregation, visual score; type: cell-based; set-up: key to coaggregation score without sugar: *: Coaggregations were reversed by both D-galactose and D-tagatose; details: for coaggregation score: pair PK29/SO34, water score 4, scale 0 no visible to 4 maximum coaggregation; for coaggregation score without sugar: pair SO34/PK29, coaggregation score 4 without sugar
Method: as §1, §2

[5] = test system: Fusobacterium nucleatum PK1594/Actinobacillus actinomycetemcomitans JP2; experiment: reversal of coaggregation, visual score; type: cell-based; set-up: key to coaggregation score without sugar: *: Coaggregations were reversed by both D-galactose and D-tagatose; details: pair PK1594/JP2; for coaggregation score without sugar: coaggregation score 3 without sugar; for coaggregation score: water score 3, scale 0 no visible to 4 maximum coaggregation
Method: as §1, §2

[6] = test system: Fusobacterium nucleatum PK1594/Porphyromonas gingivalis PK1924; experiment: reversal of coaggregation, visual score; type: cell-based; set-up: key to coaggregation score without sugar: *: Coaggregations were reversed by both D-galactose and D-tagatose; details: pair PK1594/PK1924; for coaggregation score without sugar: coaggregation score 4 without sugar; for coaggregation score: water score 4, scale 0 no visible to 4 maximum coaggregation
Method: as §1, §2

[7] = test system: Fusobacterium nucleatum PK1594/Veillonella atypica PK1910; experiment: reversal of coaggregation, visual score; type: cell-based; set-up: key to coaggregation score without sugar: *: Coaggregations were reversed by both D-galactose and D-tagatose; details: pair PK1594/PK1910; for coaggregation score without sugar: coaggregation score 3 without sugar; for coaggregation score: water score 3, scale 0 no visible to 4 maximum coaggregation
Method: as §1, §2

[8] = test system: Prevotella loescheii PK1295/Streptococcus mitis J22; experiment: reversal of coaggregation, visual score; type: cell-based; set-up: key to coaggregation score without sugar: *: Coaggregations were reversed by both D-galactose and D-tagatose; details: for coaggregation score without sugar: pair J22/PK1295, coaggregation score 3 without sugar; for coaggregation score: pair PK1295/J22, water score 4, scale 0 no visible to 4 maximum coaggregation
Method: as §1, §2

[9] = test system: Streptococcus morbillorum PK509/Prevotella loescheii PK1295; experiment: reversal of coaggregation, visual score; type: cell-based; set-up: key to coaggregation score without sugar: *: Coaggregations were reversed by both D-galactose and D-tagatose; details: pair PK509/PK1295; for coaggregation score without sugar: coaggregation score 2 without sugar; for coaggregation score: water score 2, scale 0 no visible to 4 maximum coaggregation
Method: as §1, §2

[10] = test system: Streptococcus morbillorum PK509/Streptococcus oralis C104; experiment: reversal of coaggregation, visual score; type: cell-based; set-up: key to coaggregation score without sugar: *: Coaggregations were reversed by both D-galactose and D-tagatose; details: for coaggregation score without sugar: pair Cl04/PK509, coaggregation score 3 without sugar; for coaggregation score: pair PK509/C104, water score 3, scale 0 no visible to 4 maximum coaggregation
Method: as §1, §2

[11] = test system: Streptococcus morbillorum PK509/Streptococcus oralis SO34; experiment: reversal of coaggregation, visual score; type: cell-based; set-up: key to coaggregation score without sugar: *: Coaggregations were reversed by both D-galactose and D-tagatose; details: for coaggregation score: pair PK509/SO34, water score 2, scale 0 no visible to 4 maximum coaggregation; for coaggregation score without sugar: pair SO34/PK509, coaggregation score 2 without sugar
Method: as §1, §2

[12] = test system: Streptococcus morbillorum PK509/Veillonella atypica PK1910; experiment: reversal of coaggregation, visual score; type: cell-based; set-up: key to coaggregation score without sugar: *: Coaggregations were reversed by both D-galactose and D-tagatose; details: pair PK509/PK1910; for coaggregation score without sugar: coaggregation score 2 without sugar; for coaggregation score: water score 2, scale 0 no visible to 4 maximum coaggregation
Method: as §1, §2

[13] = test system: Veillonella atypica PK1910/Streptococcus oralis C104; experiment: reversal of coaggregation, visual score; type: cell-based; set-up: key to coaggregation score without sugar: *: Coaggregations were reversed by both D-galactose and D-tagatose; details: for coaggregation score without sugar: pair Cl04/PK1910, coaggregation score 3 without sugar; for coaggregation score: pair PK1910/C104, water score 3, scale 0 no visible to 4 maximum coaggregation
Method: as §1, §2

[14] = test system: Veillonella atypica PK1910/Streptococcus oralis SO34; experiment: reversal of coaggregation, visual score; type: cell-based; set-up: key to coaggregation score without sugar: *: Coaggregations were reversed by both D-galactose and D-tagatose; details: for coaggregation score: pair PK1910/SO34, water score 3, scale 0 no visible to 4 maximum coaggregation; for coaggregation score without sugar: pair SO34/PK1910, coaggregation score 3 without sugar
Method: as §1, §2

[15] = test system: Fusobacterium nucleatum PK1594/Capnocytophaga ochracea 25; experiment: reversal of coaggregation, visual score; type: cell-based; set-up: key: *: Coaggregations were reversed by both D-galactose and D-tagatose; details: pair PK1594/Capno 25; coaggregation score 1 without sugar
Method: as §1, §2

[16] = test system: Prevotella loescheii PK1295/Streptococcus oralis C104; experiment: reversal of coaggregation, visual score; type: cell-based; set-up: key: *: Coaggregations were reversed by both D-galactose and D-tagatose
Method: as §1, §2

[17] = test system: Prevotella loescheii PK1295/Streptococcus oralis SO34; experiment: reversal of coaggregation, visual score; type: cell-based; set-up: key: *: Coaggregations were reversed by both D-galactose and D-tagatose
Method: as §1, §2

[18] = test system: F. nucleatum PK1594 and P. gingivalis PK1924; experiment: phase-contrast photomicrographs of coaggregation; type: cell-based, Fusobacterium nucleatum; Porphyromonas gingivalis
[19] = pair Cl04/PK1295, coaggregation score 4 without sugar
[20] = pair SO34/PK1295, coaggregation score 4 without sugar

| SMILES | reversal of coaggregation [1] | reversal of coaggregation [2] | coaggregation score without sugar [3] | coaggregation score without sugar [4] | coaggregation score without sugar [5] | coaggregation score without sugar [6] | coaggregation score without sugar [7] | coaggregation score without sugar [8] | coaggregation score without sugar [9] | coaggregation score without sugar [10] | coaggregation score without sugar [11] | coaggregation score without sugar [12] | coaggregation score without sugar [13] | coaggregation score without sugar [14] | coaggregation score without sugar [15] | coaggregation score [16, 19] | coaggregation score [17, 20] | other results |
| --- | --- | --- | --- | --- | --- | --- | --- | --- | --- | --- | --- | --- | --- | --- | --- | --- | --- | --- |
| O=C[C@H](O)[C@@H](O)[C@@H](O)[C@H](O)CO [D-Galactose] | 4* | 2* | 4* | 4* | 3* | 4* | 3* | 3* | 2* | 3* | 2* | 2* | 3* | 3* | 1* | 4* | 4* | coaggregation score ([1]; sugar 143 mM): 1; coaggregation score ([2]; sugar 143 mM): 0; coaggregation score ([3]; sugar 143 mM): 1; coaggregation score ([4]; sugar 143 mM): 1; coaggregation score ([5]; sugar 143 mM): 1; coaggregation score ([6]; sugar 143 mM): 0; coaggregation score ([7]; sugar 143 mM): 0; coaggregation score ([8]; sugar 143 mM): 0; coaggregation score ([9]; sugar 143 mM): 0; coaggregation score ([10]; sugar 143 mM): 0; coaggregation score ([11]; sugar 143 mM): 0; coaggregation score ([12]; sugar 143 mM): 0; coaggregation score ([13]; sugar 143 mM): 0; coaggregation score ([14]; sugar 143 mM): 1; coaggregation score ([16]; pair PK1295/C104, sugar 143 mM, water score 4, scale 0 no visible to 4 maximum coaggregation): 1; coaggregation score ([17]; pair PK1295/SO34, sugar 143 mM, water score 4, scale 0 no visible to 4 maximum coaggregation): 0; dissociation of coaggregate clumps ([18]; 143 mM final concentration): dissociates clumps into individual cells |
| O=C(CO)[C@@H](O)[C@@H](O)[C@H](O)CO [D-Tagatose] | 4* | 2* | 4* | 4* | 3* | 4* | 3* | 3* | 2* | 3* | 2* | 2* | 3* | 3* | 1* | 4* | 4* | coaggregation score ([1]; sugar 750 mM): 1; coaggregation score ([2]; sugar 200 mM): 0; coaggregation score ([3]; sugar 750 mM): 1; coaggregation score ([4]; sugar 750 mM): 1; coaggregation score ([5]; sugar 600 mM): 0; coaggregation score ([6]; sugar 400 mM): 0; coaggregation score ([7]; sugar 200 mM): 0; coaggregation score ([8]; sugar 750 mM): 2; coaggregation score ([9]; sugar 600 mM): 0; coaggregation score ([10]; sugar 750 mM): 1; coaggregation score ([11]; sugar 400 mM): 1; coaggregation score ([12]; sugar 400 mM): 0; coaggregation score ([13]; sugar 200 mM): 1; coaggregation score ([14]; sugar 200 mM): 1; coaggregation score ([16]; pair PK1295/C104, sugar 750 mM, water score 4, scale 0 no visible to 4 maximum coaggregation): 2; coaggregation score ([17]; pair PK1295/SO34, sugar 750 mM, water score 4, scale 0 no visible to 4 maximum coaggregation): 1; dissociation of coaggregate clumps ([18]; 400 mM final concentration): dissociates the clumps into individual cells |
